From ChEMBL document CHEMBL4130359, “Indazole-based ligands for estrogen-related receptor α as potential anti-diabetic agents” (Eur J Med Chem, 2017)

Legend:
[1] = test system: Rattus norvegicus; test: Toxicity in […] chronic ob/ob model assessed as serum triglyceride level at 10 mg/kg, po qd for 31 days measured on day 32 (reference value: 329 +/- 36 mg/dl); assay type: organism-based; details: in vivo, 744 h
[2] = test system: Rattus norvegicus; test: Toxicity in Zucker rat sub-chronic fa/fa prediabetic model assessed as insulin level per gram pancreas at 1 mg/kg, po qd for 31 days measured on day 32 (reference value: 55.2 +/- 5.5 ug); assay type: organism-based; details: in vivo, 744 h
[3] = test system: Rattus norvegicus; test: Toxicity in Zucker rat sub-chronic fa/fa prediabetic model assessed as food intake at 3 mg/kg, po qd for 29 days measured on day 1 to 29 during compound dosing (reference value: 969 +/- 18 g); assay type: organism-based; details: in vivo, 696 h
[4] = test system: Rattus norvegicus; test: Toxicity in […] chronic ob/ob model assessed as body weight at 50 mg/kg, po qd for 28 days measured on day 28 post last dose (reference value: 47.3 +/- 1.06 g); assay type: organism-based; details: in vivo, 672 h
[5] = test system: Rattus norvegicus; test: Toxicity in […] model assessed as serum cholesterol level at 50 mg/kg, po qd for 31 days measured on day 32 (reference value: 195 +/- 5.5 mg/dl); assay type: organism-based; details: in vivo, 744 h
[6] = test system: Rattus norvegicus; test: Effect on SFN gene expression in epididymal white adipose tissue of Zucker rat sub-chronic fa/fa prediabetic model at 10 mg/kg, po qd for 15 days by microarray analysis relative to control; assay type: functional
[7] = organism: Rattus norvegicus; test: Toxicity in Zucker rat sub-chronic fa/fa prediabetic model assessed as increase in epididymal white adipose tissue weight during 15 day single dose study; assay type: organism-based; details: in vivo, 360 h
[8] = test system: Rattus norvegicus; test: Effect on Ckmt1 gene expression in epididymal white adipose tissue of Zucker rat sub-chronic fa/fa prediabetic model at 10 mg/kg, po qd for 15 days by microarray analysis relative to control; assay type: functional
[9] = test system: Rattus norvegicus; test: Toxicity in […] model assessed as serum AST level at 10 mg/kg, po qd for 31 days measured on day 32 (reference value: 180 +/- 26 U/L); assay type: organism-based; details: in vivo, 744 h
[10] = test system: Rattus norvegicus; test: Effect on CPT2 gene expression in epididymal white adipose tissue of Zucker rat sub-chronic fa/fa prediabetic model at 10 mg/kg, po qd for 15 days by microarray analysis relative to control; assay type: functional
[11] = test system: Rattus norvegicus; test: Effect on NDUFB5 gene expression in epididymal white adipose tissue of Zucker rat sub-chronic fa/fa prediabetic model at 10 mg/kg, po qd for 15 days by microarray analysis relative to control; assay type: functional
[12] = test system: Rattus norvegicus; test: Toxicity in Zucker rat sub-chronic fa/fa prediabetic model assessed as heart weight at 50 mg/kg, po qd for 31 days measured on day 32 (reference value: 1.19 +/- 0.04 g); assay type: organism-based; details: in vivo, 744 h
[13] = AUC (0 to 24 hrs) in Zucker rat sub-chronic fa/fa prediabetic model at 50 mg/kg, po qd measured on day 1 post dose; assay type: ADME, organism-based; set-up: dose 50 mg/kg, time < 24 hr, route oral; details: in vivo
[14] = test system: Rattus norvegicus; test: Antidiabetic activity in po dosed Zucker rat chronic ob/ob model assessed as reduction in blood glucose AUC (0 to 120 min) administered once daily for 31 days measured on day 28 post dose by OGTT; assay type: functional, organism-based
[15] = test system: Rattus norvegicus; test: Effect on HADHB gene expression in epididymal white adipose tissue of Zucker rat sub-chronic fa/fa prediabetic model at 10 mg/kg, po qd for 15 days by microarray analysis relative to control; assay type: functional
[16] = test system: Rattus norvegicus; test: Antidiabetic activity in Zucker rat sub-chronic fa/fa prediabetic model assessed as reduction in blood glucose AUC (0 to 120 min) at 10 mg/kg, po qd for 31 days measured on day 29 post dose by OGTT relative to control; assay type: functional; set-up: scale not given: the % may be the effect or the level left
[17] = AUC (0 to 24 hrs) in ob/ob mouse at 18 mg/kg administered via oral gavage by LC-MS analysis; assay type: ADME, organism-based; set-up: dose 18 mg/kg, time < 24 hr, route oral; details: in vivo
[18] = biological target: Oxysterols receptor LXR-alpha (Homo sapiens, UniProt Q13133); test: Agonist activity at recombinant GST-tagged human LXRalpha LBD assessed as fluorescein-labeled coactivator peptide recruitment preincubated with enzyme followed by coactivator addition by LanthaScreen TR-FRET assay
[19] = test system: Rattus norvegicus; test: Effect on NDUFA6 gene expression in epididymal white adipose tissue of Zucker rat sub-chronic fa/fa prediabetic model at 10 mg/kg, po qd for 15 days by microarray analysis relative to control; assay type: functional
[20] = test system: Rattus norvegicus; test: Toxicity in Zucker rat sub-chronic fa/fa prediabetic model assessed as serum BUN level at 10 mg/kg, po qd for 31 days measured on day 32 (reference value: 28.3 +/- […]); assay type: organism-based; details: in vivo, 744 h
[21] = Half life in Sprague-Dawley rat at 2 mg/kg, iv by LC-MS analysis; assay type: ADME, organism-based; details: in vivo
[22] = test system: Rattus norvegicus; test: Toxicity in […] model assessed as liver weight at 50 mg/kg, po qd for 31 days measured on day 32 (reference value: 2.77 +/- 0.16 g); assay type: organism-based; details: in vivo, 744 h
[23] = test system: Rattus norvegicus; test: Effect on NDUFA12 gene expression in epididymal white adipose tissue of Zucker rat sub-chronic fa/fa prediabetic model at 10 mg/kg, po qd for 15 days by microarray analysis relative to control; assay type: functional
[24] = AUC (0 to 24 hrs) in […] model at 3 mg/kg, po qd for 28 days measured on day 28 post last dose; assay type: ADME, organism-based; set-up: dose 3 mg/kg, time < 24 hr, route oral; details: in vivo
[25] = Oral bioavailability in Sprague-Dawley rat at 10 mg/kg administered via gavage by LC-MS analysis; assay type: ADME, organism-based; details: in vivo
[26] = Tmax in ob/ob mouse at 18 mg/kg administered via oral gavage by LC-MS analysis; assay type: ADME, organism-based; details: in vivo
[27] = test system: Rattus norvegicus; test: Decrease in fed plasma glucose level in Zucker rat sub-chronic fa/fa prediabetic model at 10 mg/kg, po qd for 4 days measured on day 5 relative to control; assay type: functional; set-up: scale not given: the % may be the effect or the level left
[28] = test system: Rattus norvegicus; test: Effect on NR1H3 gene expression in epididymal white adipose tissue of Zucker rat sub-chronic fa/fa prediabetic model at 10 mg/kg, po qd for 15 days by microarray analysis relative to control; assay type: functional
[29] = test system: Rattus norvegicus; test: Toxicity in Zucker rat sub-chronic fa/fa prediabetic model assessed as food intake at 10 mg/kg, po qd for 29 days measured on day 1 to 29 during compound dosing (reference value: 969 +/- 18 g); assay type: organism-based; details: in vivo, 696 h
[30] = test system: Rattus norvegicus; test: Toxicity in Zucker rat sub-chronic fa/fa prediabetic model assessed as epididymal white adipose tissue weight at 10 mg/kg, po qd for 31 days measured on day 32 (reference value: 13.9 +/- 0.6 g); assay type: organism-based; details: in vivo, 744 h
[31] = test system: Rattus norvegicus; test: Effect on NDUFA5 gene expression in epididymal white adipose tissue of Zucker rat sub-chronic fa/fa prediabetic model at 10 mg/kg, po qd for 15 days by microarray analysis relative to control; assay type: functional
[32] = test system: Rattus norvegicus; test: Toxicity in Zucker rat sub-chronic fa/fa prediabetic model assessed as brown adipose tissue weight at 10 mg/kg, po qd for 31 days measured on day 32 (reference value: 2.1 +/- 0.3 g); assay type: organism-based; details: in vivo, 744 h
[33] = test system: Rattus norvegicus; test: Effect on NDUFS2 gene expression in epididymal white adipose tissue of Zucker rat sub-chronic fa/fa prediabetic model at 10 mg/kg, po qd for 15 days by microarray analysis relative to control; assay type: functional
[34] = AUC (0 to 24 hrs) in […] model at 10 mg/kg, po qd for 28 days measured on day 28 post last dose; assay type: ADME, organism-based; set-up: time < 24 hr, dose 10 mg/kg, route oral; details: in vivo

Oxysterols receptor LXR-alpha, sequence (Q13133 whole entry, the tested form may be a part): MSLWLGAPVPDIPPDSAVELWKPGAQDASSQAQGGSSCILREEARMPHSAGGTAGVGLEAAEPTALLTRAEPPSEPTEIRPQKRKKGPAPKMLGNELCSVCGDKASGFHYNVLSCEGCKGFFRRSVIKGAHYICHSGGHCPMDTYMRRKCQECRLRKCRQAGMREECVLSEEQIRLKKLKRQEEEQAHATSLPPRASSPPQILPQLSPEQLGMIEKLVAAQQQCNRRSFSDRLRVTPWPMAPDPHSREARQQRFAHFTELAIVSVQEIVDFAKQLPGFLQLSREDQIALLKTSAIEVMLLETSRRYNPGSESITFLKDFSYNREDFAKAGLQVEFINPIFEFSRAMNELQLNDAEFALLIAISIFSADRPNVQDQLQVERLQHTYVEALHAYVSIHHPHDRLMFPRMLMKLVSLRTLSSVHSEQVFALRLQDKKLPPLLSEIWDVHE

## CN1CC[C@@H](N2C(=O)S/C(=C\c3ccc4c(cnn4Cc4ccc(Cl)cc4C(F)(F)F)c3)C2=O)[C@H](F)C1
[1]
  Activity: 138 mg/dL
[2]
  Activity: 72.7 µg
[3]
  Activity: 1067 g
[4]
  Activity: 46.8 g
[5]
  Activity: 145 mg/dL
[6]
  fold change (FC): -1.468
[7]
  Activity: Non-Toxic
[8]
  fold change (FC): -1.374
[9]
  Activity: 171 U/L
[10]
  fold change (FC): 2.352
[11]
  fold change (FC): 1.206
[12]
  Activity: 1.19 g
[13]
  AUC(0-t) at 24 h: 92000 ng·h/mL
[14]
  Activity: Dose-dependent effect
[15]
  fold change (FC): 1.349
[16]
  Activity: 55%
[17]
  AUC(0-t) at 24 h: 6230 ng·h/mL
[18]
  EC50: > 10 µM
[19]
  fold change (FC): 1.277
[20]
  Activity: 26.9 mg/dL
[21]
  half-life: 6 h
[22]
  Activity: 2.61 g
[23]
  fold change (FC): 1.252
[24]
  AUC at 24 h: 2150 ng·h/mL
[25]
  bioavailability: 84%
[26]
  Tmax: 2 h
[27]
  Activity: -32%
[28]
  fold change (FC): 1.389
[29]
  Activity: 1060 g
[30]
  Activity: 19.1 g
[31]
  fold change (FC): 1.568
[32]
  Activity: 8.7 g
[33]
  fold change (FC): 1.224
[34]
  AUC at 24 h: 5910 ng·h/mL
